The values that follow come from ChEMBL document CHEMBL1154245, “Parazoanthines A-E, hydantoin alkaloids from the Mediterranean sea anemone Parazoanthus axinellae” (J Nat Prod, 2009).

By EC50 is commonly meant the concentration needed to bring the measured effect to its halfway point. A higher EC50 goes with a less potent agent.

Active and inactive are the calls of the source. The rule behind the calls is not given here.

Assay [1] concerns HT-29. The experiment in a line: Antitumor activity against human HT-29 cells. The class given is functional, cell-based.
Assay [2] deals with Plasmodium falciparum. In words: Antimalarial activity against Plasmodium falciparum FcB1. As to conditions: FcB1/Columbia. It is filed as functional, organism-based.
Assay [3] has as its system MDA-MB-231. In words: Antitumor activity against human MDA-MB-231 cells. It is filed as functional, cell-based.
Assay [4] deals with A549. The experiment in a line: Antitumor activity against human A549 cells. It is filed as functional, cell-based.
Assay [5] is described as follows: Toxicity against Dysidea avara.
The nature of assay [6]: Toxicity against Ircinia variabilis.

`COc1ccc(/C=C/N2C(=O)N[C@@H](CCCNC(=N)N)C2=O)cc1Br`: the result in assay [1], in assay [2], in assay [3] and in assay [4] was inactive.

In the case of `COc1ccc(/C=C/N2C(=O)N/C(=C\CCNC(=N)N)C2=O)cc1` [PARAZOANTHINE C], the result in assay [1], in assay [2], in assay [3] and in assay [4] was inactive. Besides, the EC50 in assay [5] and in assay [6] was 1640 nM throughout.

As for `N=C(N)NCCC[C@@H]1NC(=O)N(/C=C/c2ccc(O)cc2)C1=O`, the outcome in assay [1], in assay [2], in assay [3] and in assay [4] was inactive.

Consider `N=C(N)NCC/C=C1\NC(=O)N(/C=C/c2ccc(O)cc2)C1=O`, for which the outcome in assay [1], in assay [2], in assay [3] and in assay [4] was inactive.

For the compound `COc1ccc(/C=C/N2C(=O)N/C(=C\CCNC(=N)N)C2=O)cc1Br`, the result in assay [1], in assay [2], in assay [3] and in assay [4] was inactive.
